# Reference: US20130252886A1, “METHODS OF DELAYING AND TREATING DIABETES” (priority 2010, published 2013)
# “Also recorded” adds a separate entry of the source.
# Legend:
# Assay type in all cases: in vivo
# [1] = Average body weight / lean body mass of NOD mice; details: 30 mg/kg GABA and/or 0.4 U insulin groups, FIGS. 3 and 4, 30 mg/kg
# Source text: FIGS. 3 and 4 show the average weight for the NOD mice in each group during the course of the experiment. The x-axis (age of mouse in weeks) corresponds to both the delayed onset and treatment regimens, depending on when the diagnosis of diabetes was made.
# [2] = Pharmacokinetics: plasma GABA concentration in diabetic dogs (LC/MS)
# Method: Plasma GABA measurements were made by liquid chromatography/mass spectroscopy. Blood was drawn at 0, 60, 90, 120 and 240 minutes and plotted as area under the curve. These samples were drawn after a meal but in the absence of exogenous insulin administration, as previously described for C-peptide measurements. Blood samples were drawn and divided into serum separation or plasma separation tubes for C-peptide and pharmacokinetics studies respectively.
# This bell shaped response mimics what is seen in dose-response curves with GABA in vitro.
# [3] = system: Female NOD mice (NOD/ShiLtJ, Taconic); assay: Insulin requirement and blood glucose in diabetic NOD mice, GABA vs lysine controls (Example 6)
# Method: Female NOD mice (NOD/ShiLtJ, Taconic) were housed in accordance with NIH Animal Use and Welfare guidelines with 12 hour light-dark cycle beginning at 9 weeks of age. The animals were fed a standard rodent diet ad lib. Blood glucose was measured weekly using a Freestyle glucometer, and then twice daily once it was determined they had diabetes.
# Mice were considered diabetic if a single non-fasting blood glucose measurement was […]. For about eight weeks before the mice became diabetic, their average fasting blood glucose was 102 mg/dl. Once diabetic, blood glucose levels were measured twice daily, approximately eight hours apart. All of the mice received insulin subcutaneously twice daily and the dosage was adjusted as needed. Three diabetic mice were randomly designated as controls and were given the amino acid lysine (8 mg/kg) orally (PO) twice a day before the administration of insulin.
# insulin-dependent dogs [4] = assay: Clinical trial of oral GABA in naturally-occurring insulin-dependent dogs: blood glucose, fructosamine
# Method: These companion dogs were housed in homes, mimicking the lifestyle of diabetic humans. Based on published estimates, approximately 50% of these animals had insulitis, while others have had pancreatitis.
# The GABA was diluted in water and the owner administers it orally (PO QD) as a bolus just before feeding. […] Once randomized on day 120, all investigators were blinded as to treatment.
# As previously described in Example 5, supra, the 8 month clinical canine trial in collaboration with Purdue University was completed. Naturally-occurring diabetic dogs were housed in homes and were insulin dependent when they began the study. FIGS. 18 and 19 show the mean 10 hour fasting blood glucose (mg/dl) and mean C-peptide (ng/ml/kg) in these insulin-dependent dogs, respectively.
# FIG. 18 is a graph of the mean blood glucose in the seven dogs measured during a ten hour window. On a measurement day, the dogs were fed and given insulin. Blood glucose was then monitored at ˜8:00 AM and for every two hours until ˜6:00 PM. The mean of these values was taken and plotted in FIG. 18.
# On day 0, the mean 10 hr glucose was 310 mg/dl. From day 0 to day 60, the dogs were treated with insulin only. […] The mean blood glucose over the 10 hour measurement period dropped to 209 mg/dl by the last visit, a 33% overall improvement without a significant change in the average insulin dosage.
# insulin-dependent dogs [5] = assay: Stimulated C-peptide in insulin-dependent dogs (radioimmunoassay); details: oral GABA 30, 60, 90 mg/kg, seven dogs
# Source text: C-peptide was monitored as a way to determine the amount of endogenous insulin synthesized and secreted in these diabetic dogs. Endogenous insulin is first biosynthesized as linked A, B and C peptides. The C-peptide is removed and circulates in the blood stream. The active insulin molecule is linked A & B peptide only. Since diabetic patients administering insulin injections receive exogenous A & B peptide, the measurement of C-peptide can determine of how much endogenous insulin is produced by the individual's pancreas.
# In this study stimulated C-peptide was measured every two months. On the day of C-peptide measurements, blood was drawn at time 0 and the dog was fed stimulating C-peptide release. No exogenous insulin was given by injection to avoid suppressing endogenous insulin secretion. Blood was drawn again at 60, 90, 120 and 240 minutes. […] C-peptide was plotted as area under the curve measurements. The values for the placebo treatment have been grouped and represent all seven dogs.
# diabetic female NOD mice = assay: Diabetes treatment protocol in diabetic NOD mice (GABA before insulin, BID)
# Source text: Once the NOD mice became diabetic, they were shifted from the prevention/delayed onset regimen into the treatment protocol. […] The first dose of GABA was given just after removing the food from the cage and a second dose was given approximately eight hours later, just before feeding. […] Two NOD mice were maintained on insulin when they became diabetic, to serve as controls.
# The first dose of GABA was given just after removing the food from the cage and a second dose was given approximately eight hours later, just before feeding. The insulin dose administered was based on each mouse's blood glucose level.
# Female non-obese diabetic (NOD) mice (Jackson Laboratory) were used to study GABA treatment efficacy. Diabetes normally occurs in 90-100% of these mice by 30 weeks and they develop the insulitis and hypoinsulinemia that characterizes Type 1 diabetes in humans. Mice were housed in accordance with NIH Animal Use and Welfare guidelines with 12 hour light-dark cycle beginning at 8 weeks of age. Animals were fed a standard rodent diet ad lib overnight followed by removal of food from the cage for an 8 hour fast. Before and after the eight hour fast, blood glucose was measured weekly using a Freestyle Glucometer and then daily once mice were determined to be diabetic. Mice were considered diabetic if at the end of the 8 hours fast, on three consecutive days, glucose measurements were ≧200 mg/dl. Onset of diabetes usually began to occur when the mice were 12 weeks of age.
# NOD mouse pancreas = assay: Pancreas histology of NOD mice
# Method: NOD mice, as previously described in Examples 1-4, supra, were anesthetized with an intraperitoneal injection of 75 mg/kg pentobarbital (Nembutol). When mice were unresponsive to painful stimuli, the pancreas was surgically removed and placed in 10% neutral buffered formalin. Mice were then euthanized by exsanguination. The paraffin blocks of fixed pancreas were processed by automation and 5 micron sections were prepared from three levels for automated hematoxylin and eosin staining followed by aldehyde fuchsin stain for insulin. The histology slides were prepared and stained at Jackson Laboratory, Bar Harbor, Me.
smiles,measurement,setting,value
"NCCCC(=O)O [GABA, γ-aminobutyric acid]",average weight / lean body mass,[1],maintained the lowest weights; also recorded: maintains lean body mass
same,change of plasma GABA levels at visit 14,[2]; dose raised to 90 mg/kg,decreases two fold
same,increase of plasma GABA levels between visit 8 and visit 12,[2]; oral GABA dose doubled (30 to 60 mg/kg),~80 fold
same,decrease in insulin compared to control mice,"[3]; 60 or 90 mg/kg GABA, over 9 weeks",4 fold
same,mice that became insulin independent,[3]; GABA treated group (4 out of 8),50%
same,blood glucose average in mice not requiring insulin,[3]; on oral GABA alone,below 150 mg/dl
same,mean blood glucose,"[3]; over 9 weeks, 60 or 90 mg/kg GABA with insulin",310 mg/dL
same,average reduction in blood glucose levels from day 60 to day 120,insulin-dependent dogs [4]; 30 mg/kg GABA PO QD,32%
same,reduction in average blood glucose levels at day 120 compared to the pre-treatment average (day −10 through day 60),insulin-dependent dogs [4]; 30 mg/kg GABA PO QD,40%
same,overall improvement of mean 10 hour blood glucose,"insulin-dependent dogs [4]; day 0 to last visit, without significant change in average insulin dosage",33%
same,mean blood glucose over the 10 hour measurement period,"insulin-dependent dogs [4]; seven dogs, last visit, GABA escalated 30, 60, 90 mg/kg, day 0 value 310 mg/dl",209 mg/dL
same,fasting blood glucose control,"insulin-dependent dogs [4]; six dogs, 30 mg/kg GABA PO QD from day 60, with insulin, 30 mg/kg",downward decrease in fasting blood glucose; also recorded: substantially improved
same,mean fructosamine level,"insulin-dependent dogs [4]; six dogs, treatment days 60-120 with 30 mg/kg GABA vs pretreatment days 0-59 (p=0.007)",decline of the mean fructosamine level
same,C-peptide (area under the curve),insulin-dependent dogs [5],dose dependent increase
same,insulin dose required over the course of treatment,"diabetic female NOD mice; 60 mg/kg GABA BID, insulin dosed to keep fasting blood glucose ≦200 (Ex. 2) or ≦150 mg/dl (Ex. 4)",declined markedly; also recorded: rapidly required less insulin; also recorded: significantly less insulin over time
same,lowering blood glucose levels and insulin requirements after onset of diabetes,diabetic female NOD mice; 60 mg/kg GABA PO BID,effective treatment
same,fasting and fed blood glucose in mice that became insulin independent,diabetic female NOD mice; 60 mg/kg GABA orally over approximately 11 weeks,completely restored to normal
same,number of insulin dependent diabetic mice that became insulin independent,diabetic female NOD mice; 60 mg/kg GABA treatment,four
same,reduction in insulin dose to keep fasting blood glucose ≦150 mg/dl,diabetic female NOD mice; all diabetic mice treated with 60 mg/kg GABA,≥ 85%
same,"decrease in average insulin requirement, of the maximum dose","diabetic female NOD mice; eight diabetic mice, 60 mg/kg GABA BID",85%
same,insulin required to maintain an average weekly blood glucose of 200 mg/dl,"diabetic female NOD mice; single mouse of FIG. 15, at sacrifice",0.0025 units
same,"insulin dose at sacrifice, of the original dose","diabetic female NOD mice; single mouse of FIG. 15, diabetic 34 weeks, on insulin and GABA throughout",less than 1%
same,insulin requirement to maintain fasting blood glucose ≦150 mg/dl,diabetic female NOD mice; three of the eight mice treated with GABA (FIG. 6),eventually came to zero
same,"pancreatic histology, islets and inflammation","NOD mouse pancreas; mouse that remained on GABA (and insulin) until sacrifice, FIG. 15",regenerated islets and little to no inflammation
same,pancreatic histology after stopping GABA treatment,"NOD mouse pancreas; mouse weaned off insulin, sacrificed at 64 weeks, FIG. 14",causes the inflammation to return to the pancreas
